# Source: patent US5175283A, “Azetidin-2-one derivatives as serine protease inhibitors” (Bristol-Myers Squibb Company, priority 1992, dated 1992)
# Structures can show the parent of a compound that is named as a salt. Where two headings read alike, the source gives them in different places.
# What was measured:
# Format in all cases: biochemical
# human α-thrombin [1] = biological target: T1, human α-thrombin (Homo sapiens, UniProt P00734); test: Concentration required for doubling thrombin clotting time in human plasma; settings: human citrated plasma, 10 U/ml human thrombin; read-out: ED50, drug concentration required to double clotting time
# T1 construct: purified human α-thrombin dissolved in thrombin assay buffer
# Method: Procedure for Determining the Concentration Required for Doubling Thrombin Clotting Time--Clotting Time Assays The following reagents were used in these assays: Owren's Veronal Buffer: 125 mM NaCl, 28.4 mM sodium barbital, pH 7.35. Human citrated plasma obtained from human volunteers or citrated plasma obtained from IP-dosed animals (prepared as described below). 10 NIH Units/ml human α-thrombin in thrombin buffer for use with human plasma. […] The blood was centrifuged at […] (480×g) for 15 min at room temperature (using a Sorvall RT 6000B centrifuge). The plasma was removed, pooled, and aliquoted into small tubes which were stored frozen for later use. Clotting Time Measurement Clotting times were determined by pipetting 0.1 ml of Owren's buffer (pre-warmed 37° C.) and 0.1 ml of human or rat plasma into yellow sample cuvettes. For studies with human plasma 10 U/ml human thrombin (10 ml) was placed in the reservoir assembly station of the MLA 700. (Medical Laboratory Automation, Electra 700 Reservoir Assembly). For rat studies, the human thrombin concentration was 25 U/ml. The cuvettes were vortexed and then placed on the MLA 700 sample wheel. The coagulation timer (MLA 700) automatically dispenses 0.1 ml human thrombin into the sample in each cuvette. Detection of the fibrin clot was determined optically by the MLA 700. Studies were performed to determine the concentration of drug which caused a doubling of the clotting time in human plasma. From standard curves of thrombin activity added to the sample versus the clotting time, the concentration of drug which caused a doubling of the thrombin clotting time corresponded to inhibition of approximately 1/2 of the added thrombin clotting activity. Results are reported in Table 1 as ED50 values, i.e., the drug concentration required to double clotting time.
# human α-thrombin [2] = biological target: T1, human α-thrombin; test: Enzyme assay for the inhibition of thrombin (s-2238 substrate); settings: for IC50: 3 min incubation of drug with enzyme, room temperature; for Thrombin k2 /ki (second order rate constant for inactivation of the enzyme): human α-thrombin, s-2238, pH 7.4, room temperature
# Method: 1. Enzyme Assays for the Inhibition of Thrombin The following reagents were used in these assays: Thrombin assay buffer: 145 mM NaCl, 5 mM KCl, 30 mM N-2-hydroxyethyl piperazine-N'-2-ethanesulfonic acid, pH 7.4, 1 mg/ml polyethylene glycol (PEG-8000). 3 mM D-Phe-Pip-Arg-p-nitroanilide (s-2238) in H2 O. 3 U/ml purified human α-thrombin dissolved in thrombin assay buffer. Inhibitors to be tested were dissolved in H2 O, methanol, or DMSO just prior to use. Assay Procedure To each well in a 96-well microtiter plate, 270 μl of assay buffer was added. Human α-thrombin (10 μl of 3 U/ml) was added, then 10 μl of inhibitor were added and mixed. The samples were incubated at room temperature for a defined period of time (3 min for initial IC50 determinations). The enzymic reaction was started with 10 μl of 3 mM s-2238 substrate and continued at room temperature. The change in optical density was measured at 405 nm. A kinetic microplate reader (Molecular Devices Corporation Vmax) was used to measure the change in optical density over time. Results are reported in Table 1 as IC50 values, i.e., the drug concentration in mole/liter which caused 50% inhibition of the enzyme activity (after incubation of the drug with the enzyme for 3 min). Alternatively, results are also reported in Table 1 expressed as k2 /ki which is the second order rate constant in per mole per minute for inactivation time of the enzyme [Kitz, et al., J. Biol. Chem., 237, 3245 (1962)].
# [3] = biological target: T2, bovine pancreatic trypsin (Bos taurus, UniProt P00760); test: Enzyme assay for the inhibition of trypsin (Z-Val-Gly-Arg-pNA substrate)
# T2 construct: purified bovine pancreatic trypsin dissolved in trypsin assay buffer
# T2 sequence (P00760 24-246): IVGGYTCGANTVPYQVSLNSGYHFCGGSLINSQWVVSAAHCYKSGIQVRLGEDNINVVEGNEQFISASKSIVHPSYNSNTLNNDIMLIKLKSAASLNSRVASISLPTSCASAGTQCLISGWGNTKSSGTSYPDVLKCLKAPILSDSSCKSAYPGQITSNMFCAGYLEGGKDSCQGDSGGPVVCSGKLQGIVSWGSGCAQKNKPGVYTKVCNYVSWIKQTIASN
# Method: 2. Enzyme Assays for the Inhibition of Trypsin
# The following reagents were used in these assays:
# Trypsin assay buffer: 2 mM CaCl2, 50 mM Tris/Cl pH 8.0.
# 3 mM Z-Val-Gly-Arg-pNA (Chromzyme TRy) dissolved in H2 O.
# 6 μg/ml of purified bovine pancreatic trypsin dissolved in trypsin assay buffer.
# Inhibitors to be tested were dissolved in H2 O, methanol or DMSO just prior to use.
# To each well in a 96-well microtiter plate, 270 μl of assay buffer was added. Bovine trypsin (10 μl of 6 μg/ml) was added. Inhibitor (10 μl ) was added, mixed, and then incubated at room temperature for 3 min. The enzymic reaction was started with 10 μl of 3 mM Z-Val-Gly-Arg-pNA substrate. The change in optical density was measured at 405 nm at room temperature. A kinetic microplate reader (Molecular Devices Corporation Vmax) was used to measure the change in optical density over time.
# Results are reported in Table 1 as IC50 values, i.e., the drug concentration in mole/liter which caused 50% inhibition of the enzyme activity (after incubation of the drug with the enzyme for 3 min).
# [4] = 3 min incubation of drug with enzyme, room temperature, pH 8.0, read-out: Trypsin IC50
IC (2-fold clotting time) (human α-thrombin [1]) [µM],IC50 (human α-thrombin [2]) [nM],"IC50 [3, 4] [nM]",Thrombin k2 /ki (second order rate constant for inactivation of the enzyme) (human α-thrombin [2]),IC50 [3] [nM],SMILES
12,390,12,–,–,"CC(=O)N1C(=O)[C@@H](CCCNC(=N)N)[C@@H]1C(=O)O (relative stereo) [XIV, trans-4-Carboxy-3-quanidinopropyl-1-acetyl-2-azetidinone hydrochloride salt]"
80,3,120,4.5 × 10^7 m^-1 min^-1,–,"Cc1ccc(S(=O)(=O)N2C(=O)[C@@H](CCCNC(=N)N)[C@@H]2C(=O)N2CCCCC2)cc1 (relative stereo) [XIII, trans-4-(1-Piperidinocarbonyl)-3-guanidinooropyl-1-p-toluenesulfonyl-2-azetidinone hydrochloride salt]"
0.5,25,120,1.3 × 10^6 m^-1 min^-1,–,"CC(=O)N1C(=O)[C@@H](CCCNC(=N)N)[C@@H]1C(=O)Nc1ccc(C)cc1 (relative stereo) [XVI, trans-4-(4-Methylbenzeneaminocarbonyl)-3-guanidinopropyl-1-acetyl-2-azetidinone hydrochloride salt]"
30,10,14,2.8 × 10^6 m^-1 min^-1,–,"CN(C)c1cccc2c(S(=O)(=O)N3C(=O)[C@@H](CCCNC(=N)N)[C@@H]3C(=O)N3CCCCC3)cccc12 (relative stereo) [XII, trans-4-(1-Piperidinocarbonyl)-3-guanidinooropyl-1-[(5-dimethylamino)-1-naphthalenesulfonyl]-2-azetidinone hydrochloride salt]"
0.34,12,–,4.2 × 10^7 m^-1 min^-1,12,"CC(=O)OC1C(CCCNC(=N)N)C(=O)N1C(C)=O (centres unmarked) [XX, 4-Acetyloxy-3-quanidinopropyl-1-acetyl-2-azetidinone hydrochloride salt]"
30,1700,5,8.3 × 10^4 m^-1 min^-1,–,"COC(=O)[C@H]1[C@H](CCCNC(=N)N)C(=O)N1C(=O)Nc1ccccc1 (relative stereo) [V, trans-4-Methoxycarbonyl-3-(3-quanidinopropyl)-1-phenylaminocarbonyl-2-azetidinone hydrochloride salt]"
0.75,12.5,36,5.6 × 10^6 m^-1 min^-1,–,"CCS[C@H]1[C@H](CCCNC(=N)N)C(=O)N1C(C)=O (relative stereo) [VII, trans-4-Ethylthio-3-quanidinopropyl-1-acetyl-2-azetidinone hydrochloride salt]"
50,16,720,2.1 × 10^7 m^-1 min^-1,–,"COC(=O)[C@H]1[C@H](CCCNC(=N)N)C(=O)N1S(=O)(=O)c1cccc2c(N(C)C)cccc12 (relative stereo) [III, trans-4-Methoxycarbonyl-3-(3-guanidinopropyl)-1-[(5-dimethylamino)-1-naphthalenesulfonyl]-2-azetidinone hydrochloride salt]"
1.25,2,40,1.9 × 10^7 m^-1 min^-1,–,"COC(=O)[C@H]1[C@H](CCCNC(=N)N)C(=O)N1C(C)=O (relative stereo) [II, trans-4-Methoxycarbonyl-3-[3-quanidinopropyl)-1-acetyl-2-azetidinone hydrochloride salt]"
